Columns and labels:
[1] = biological target: T1, recombinant human Meningioma Expressed Antigen 5 (MGEA5), also referred to as O-GlcNAcase (OGA) (Homo sapiens, UniProt O60502); experiment: OGA biochemical assay (inhibition of FM-GlcNAc hydrolysis, fluorescence); conditions: for Emax: read-out: Enzymatic Emax (%); for IC50: read-out: Enzymatic hOGA, pIC50 (converted)
T1 construct: Full length OGA enzyme was purchased at OriGene (cat #TP322411); purchased OriGene TP322411
T1 sequence (O60502 1-916): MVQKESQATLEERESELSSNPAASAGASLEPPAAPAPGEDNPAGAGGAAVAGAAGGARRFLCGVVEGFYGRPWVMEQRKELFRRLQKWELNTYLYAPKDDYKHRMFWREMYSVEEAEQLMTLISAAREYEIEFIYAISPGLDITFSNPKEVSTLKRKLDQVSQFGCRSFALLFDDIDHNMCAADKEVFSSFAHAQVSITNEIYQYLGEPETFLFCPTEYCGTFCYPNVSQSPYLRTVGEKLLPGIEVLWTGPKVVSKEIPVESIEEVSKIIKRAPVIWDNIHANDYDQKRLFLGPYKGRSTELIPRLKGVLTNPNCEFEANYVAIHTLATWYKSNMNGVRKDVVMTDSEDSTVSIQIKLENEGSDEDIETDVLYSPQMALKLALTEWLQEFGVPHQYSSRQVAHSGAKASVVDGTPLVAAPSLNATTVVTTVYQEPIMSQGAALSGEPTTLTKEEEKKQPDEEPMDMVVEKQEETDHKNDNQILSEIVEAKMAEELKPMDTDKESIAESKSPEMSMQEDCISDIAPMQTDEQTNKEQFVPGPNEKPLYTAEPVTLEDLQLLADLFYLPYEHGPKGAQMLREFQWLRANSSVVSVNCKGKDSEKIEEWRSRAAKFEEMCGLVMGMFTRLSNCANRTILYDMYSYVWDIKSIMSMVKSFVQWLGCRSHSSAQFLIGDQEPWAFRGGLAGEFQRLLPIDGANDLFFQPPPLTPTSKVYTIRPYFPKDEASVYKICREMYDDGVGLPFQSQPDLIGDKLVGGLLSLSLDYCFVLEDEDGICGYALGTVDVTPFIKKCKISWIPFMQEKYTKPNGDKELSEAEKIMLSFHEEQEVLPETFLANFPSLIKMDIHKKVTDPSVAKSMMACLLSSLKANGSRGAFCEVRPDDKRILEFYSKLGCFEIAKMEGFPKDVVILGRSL
Excerpt: The assay is based on the inhibition of the hydrolysis of fluorescein mono-B-D-N-Acetyl-Glucosamine (FM-GcNAc) (Mariappa et al. 2015, Biochem J470:255) by the recombinant human Meningioma Expressed Antigen 5 (MGEA5), also referred to as O-GlcNAcase (OGA). The hydrolysis FM-GlcNAc (Marker Gene technologies, cat #M1485) results in the formation of B-D-N-glucosamineacetate and fluorescein. The fluorescence of the latter can be measured at excitation wavelength 485 nm and emission wavelength 538 nm. An increase in enzyme activity results in anincrease in fluorescence signal. Full length OGA enzyme was purchased at OriGene (cat #TP322411). The enzyme was stored in 25 mM Tris.HCl, pH 7.3, 100 mM glycine, 10% glycerol at −20° C. Thiamet G and GlcNAcStatin were tested as reference compounds (Yuzwa et al. 2008 Nature Chemical Biology 4:483; Yuzwa et al. 2012 Nature Chemical Biology 8:393). The assay was performed in 200 mM Citrate/phosphate buffer supplemented with 0.005% Tween-20. 35.6 g Na2HPO4 2H2O (Sigma, #C0759) were dissolved in 1 L water to obtain a 200 mM solution. 19.2 g citric acid (Merck, #1.06580) was dissolved in 1 L water to obtain a 100 mM solution. pH of the sodiumphosphate solution was adjusted with the citric acid solution to 7.2. The buffer to stop the reaction consists of a 500 mM Carbonate buffer, pH 11.0. 734 mg FM-GlcNAc were dissolved in 5.48 mL DMSO to obtain a 250 mM solution and was stored at −20° C. OGA was used at a 2 nM concentration and FM-GcNAc at a 100 uM final concentration. Dilutions were prepared in assay buffer.
50 nl of a compound dissolved in DMSO was dispensed on Black Proxiplate™ 384 Plus Assay plates (Perkin Elmer, #6008269) and 3 μl fl-OGA enzyme mix added subsequently. Plates were pre-incubated for 60 min at room temperature and then 2 μl FM-GlcNAc substrate mix added.
Plates were briefly centrifuged for 1 min at 1000 rpm and incubate at room temperature for 6 h. To stop the reaction 5 μl STOP buffer were added and plates centrifuge again 1 min at 1000 rpm. Fluorescence was quantified in the Thermo Scientific Fluoroskan Ascent or the PerkinElmer EnVision with excitation wavelength 485 nm and emission wavelength 538 nm.
For analysis a best-fit curve is fitted by a minimum sum of squares method. From this an IC50 value and Hill coefficient was obtained. High control (no inhibitor) and low control (saturating concentrations of standard inhibitor) were used to define the minimum and maximum values.

OGA = biological target: T2, OGA (Homo sapiens, UniProt O60502); experiment: OGA cellular assay (ICC detection of O-GlcNAcylated proteins in HEK293 cells inducible for P301L mutant human Tau); format: cell-based; conditions: 6 hours incubation; for Emax: HEK293, HEK293 cells inducible for P301L mutant human Tau; for EC50: read-out: Cellular hOGA, pEC50 (converted)
T2 construct: HEK293 cells inducible for P301L mutant human Tau (isoform 2N4R) were established at Janssen; endogenous in cells; host or cells: HEK293 cells inducible for P301L mutant human Tau (2N4R)
T2 sequence (O60502 1-916): T1 sequence (O60502 1-916)
Procedure: HEK293 cells inducible for P301L mutant human Tau (isoform 2N4R) were established at Janssen. Thiamet-G was used for both plate validation (high control) and as reference compound (reference EC50 assay validation). OGA inhibition is evaluated through the immunocytochemical (ICC) detection of O-GlcNAcylated proteins by the use of a monoclonal antibody (CTD110.6; Cell Signaling, #9875) detecting 0-GlcNAcylated residues as previously described (Dorfmueller et al. 2010 Chemistry & biology, 17:1250). Inhibition of OGA will result in an increase of 0-GlcNAcylated protein levels resulting in an increased signal in the experiment. Cell nuclei are stained with Hoechst to give a cell culture quality control and a rough estimate of immediate compounds toxicity, if any. ICC pictures are imaged with a Perkin Elmer Opera Phenix plate microscope and quantified with the provided software Perkin Elmer Harmony 4.1.
Cells were propagated in DMEM high Glucose (Sigma, #D5796) following standard procedures. 2 days before the cell assay cells are split, counted and seeded in Poly-D-Lysine (PDL) coated 96-wells (Greiner, #655946) plate at a cell density of 12,000 cells per cm^2 (4,000 cells per well) in 100p of Assay Medium (Low Glucose medium is used to reduce basal levels of GlcNAcylation) (Park et al. 2014 The Journal of biological chemistry 289:13519). At the day of compound test medium from assay plates was removed and replenished with 90 μl of fresh Assay Medium. 10 μl of compounds at a 10 fold final concentration were added to the wells. Plates were centrifuged shortly before incubation in the cell incubator for 6 hours. DMSO concentration was set to 0.2%. Medium is discarded by applying vacuum. For staining of cells medium was removed and cells washed once with 100 μl D-PBS (Sigma, #D8537). From next step onwards unless other stated assay volume was always 50p and incubation was performed without agitation and at room temperature. Cells were fixed in 50 μl of a 4% paraformaldehyde (PFA, Alpha aesar, #043368) PBS solution for 15 minutes at room temperature. […] Before analysis samples were washed 2 times manually for 5 minutes in ICC base buffer.
Imaging is performed using Perkin Elmer Phenix Opera using a water 20× objective and recording 9 fields per well. Intensity readout at 488 nm is used as a measure of O-GlcNAcylation level of total proteins in wells. To assess potential toxicity of compounds nuclei were counted using the Hoechst staining. IC50-values are calculated using parametric non-linear regression model fitting. As a maximum inhibition Thiamet G at a 200 uM concentration is present on each plate. In addition, a concentration response of Thiamet G is calculated on each plate.

[2] = HEK293 cells inducible for P301L mutant human Tau

SMILES	Emax [1]	IC50 [1]	Emax (OGA; maximum = Thiamet G 200 uM)	EC50 (OGA; [2])	Enzymatic Emax (%) [1]	Cellular Emax (%) (OGA; HEK293 cells inducible for P301L mutant human Tau, maximum = Thiamet G 200 uM)
CC(c1ccc2c(n1)OCCO2)N1CCC(Oc2ccc(OC(F)(F)F)cn2)CC1 (stereo not shown) [Compound 96]	99%	63.1 nM	41%	> 1000 nM	–	–
CC(c1nc2c(cc1F)OCCO2)N1CCC(Oc2ccc(C(F)(F)F)cn2)CC1 (stereo not shown) [Compound 158]	99%	15.8 nM	77%	251 nM	–	–
Cc1cc(O[C@H]2CCN(C(C)c3ccc4c(n3)OCCO4)C[C@H]2C)cc(C)n1 (stereo partly shown) [Compound 28]	101%	10 nM	68%	126 nM	–	–
Cc1cc(OC2CCN(C(C)c3cnc4sc(C)nc4c3)CC2)cc(C)n1 (stereo not shown) [Compound 40]	101%	126 nM	59%	631 nM	–	–
Cc1cc(OC2CCN(C(C)c3nc4c(cc3F)OCCO4)CC2)cc(C#N)n1 (stereo not shown) [Compound 128]	102%	7.94 nM	95%	50.1 nM	–	–
Cc1cc(OC2CCN(C(C)c3ccc4sc(C)nc4n3)CC2)cc(C)n1 (stereo not shown) [Compound 7]	100%	63.1 nM	71%	398 nM	–	–
COc1cc(OC2CCN(C(C)c3ccc4c(n3)OCCO4)CC2)cc(C)n1 (single isomer, unassigned) [Compound 53]	–	7940 nM	–	> 1000 nM	55%	−8%
Cc1cc(OC2CCN(C(C)c3ccc4sc(C)nc4n3)CC2)c(Cl)c(C)n1 (stereo not shown) [Compound 27]	99%	100 nM	76%	501 nM	–	–
Cc1cc(COC2CCN(Cc3ccc4sc(C)nc4n3)CC2)cc(C)n1 [Compound 36]	90%	1260 nM	7%	> 1000 nM	–	–
COc1cc(OC2CCN(C(C)c3ccc4c(n3)OCCO4)CC2)ncc1C#N (stereo not shown) [Compound 103]	97%	79.4 nM	52%	–	–	–
Cc1cnnc(OC2CCN(C(C)c3ccc4c(n3)OCCO4)CC2)c1 (stereo not shown) [Compound 77]	97%	200 nM	35%	> 1000 nM	–	–
Cc1cc(C(F)(F)F)cc(OC2CCN(C(C)c3nc4c(cc3F)OCCO4)CC2)n1 (stereo not shown) [Compound 48]	98%	20 nM	84%	251 nM	–	–
CC(c1nc2c(cc1F)OCCO2)N1CCC(Oc2ccc(C(F)(F)F)nn2)CC1 (stereo not shown) [Compound 39]	101%	20 nM	73%	316 nM	–	–
Cc1cccc(OC2CCN(C(C)c3ccc4c(n3)OCCO4)CC2)n1 (stereo not shown) [Compound 46]	98%	158 nM	33%	> 1000 nM	–	–
COc1cc(OC2CCN(C(C)c3ccc4c(n3)OCCO4)CC2)cc(C)n1 (stereo not shown) [Compound 14]	100%	20 nM	82%	126 nM	–	–
Cc1cc(OC2CCN(C(C)c3ccc4c(n3)OCCO4)CC2)nc(C)n1 (single isomer, unassigned) [Compound 10]	100%	50.1 nM	73%	631 nM	–	–
COc1cc(OC2CCN(C(C)c3ccc4c(n3)OCCO4)CC2)ccn1 (stereo not shown) [Compound 72]	101%	31.6 nM	60%	251 nM	–	–
Cc1cc(COC2CCN(C(C)c3nc4c(cc3F)OCCO4)CC2)cc(C(F)(F)F)n1 (stereo not shown) [Compound 169]	96%	12.6 nM	87%	51.3 nM	–	–
CC(c1nc2c(cc1F)OCCO2)N1CCC(Oc2ccnc(C#N)c2)CC1 (stereo not shown) [Compound 155]	94%	15.8 nM	67%	79.4 nM	–	–
Cc1cc(OC2CCN(C(C)c3ccc4c(n3)OCCO4)CC2)cc(C2CC2)n1 (stereo not shown) [Compound 125]	96%	31.6 nM	91%	126 nM	–	–
Cc1cc(COC2CCN(C(C)c3ccc4c(n3)OCC4)CC2)cc(C)n1 (stereo not shown) [Compound 154]	94%	39.8 nM	81%	158 nM	–	–
C[C@H](c1nc2c(cc1F)OCCO2)N1CCC(Oc2ccc(C#N)nn2)CC1 (single isomer, unassigned) [Compound 85]	-11%	> 10000 nM	-3%	> 1000 nM	–	–
COc1cnccc1OC1CCN(C(C)c2ccc3c(n2)OCCO3)CC1 (stereo not shown) [Compound 98]	94%	200 nM	47%	501 nM	–	–
